Measured values from publication PMC9458250, “6-Formyl Umbelliferone, a Furanocoumarin from Angelica decursiva L., Inhibits Key Diabetes-Related Enzymes and Advanced Glycation End-Product Formation” (Molecules, 2022).

Legend:
[1] = system: insulin-resistant C2C12 skeletal muscle cells; assay: 2-NBDG glucose uptake assay; type: cell-based
Protocol: The C2C12 cells were cultured in 96-well plates (2 × 10^5 cells/well) with DMEM containing 10% FBS and 1% P/S at 37 °C and exposed to a 5% CO2 atmosphere. When the cells reached confluence, they were subjected to differentiation in DMEM supplemented with 2% horse serum for 5 days. Then the cells were starved in low-glucose serum-free DMEM for 24 h. Subsequently, the 2-NBDG assay was performed to evaluate glucose uptake. The cells were treated with various concentrations of 6-FU and insulin (100 nM) for 12 h, followed by 20 μM 2-NBDG for 24 h. To stop the response, the cells were washed three times with ice-cold PBS, and then the 2-NBDG fluorescence intensity was measured on a microplate reader (FL × 800, Bio-Tek Instruments Inc., Winooski, VT, USA) at 490 nm (excitation) and 535 nm (emission). Five replicate wells were established, and each experiment was replicated three times. Rosiglitazone was used as the positive control.

[2] = system: PTP1B expression in insulin-resistant C2C12 cells; assay: PTP1B expression by Western blot; type: cell-based; conditions: 40 μM, 24 h
Protocol: Insulin-resistant C2C12 cells (2 × 10^5 cells/well) in 6-well plates were treated with different concentrations of 6-FU for 24 h. After stimulation with 100 nM insulin for 30 min at 37 °C, the cells were washed three times with ice-cold PBS, collected, and lysed with sample buffer (50 mM HEPES, pH 7.5, 150 mM NaCl, 2.5 mM EDTA, 0.5% NP40, 1 mM PMSF, 1 mM DTT, 0.2% aprotinin, 0.5% leupeptin, 20 mM NaF, and 1 mM Na3VO4) on ice. After incubation for 30 min, the insoluble materials were removed by centrifugation at 25,000× g for 20 min. The protein concentrations were determined using a modified Bradford protein assay kit. Total protein (50 μg) was subjected to dodecyl sulfate–polyacrylamide gel electrophoresis and transferred to a polyvinylidene difluoride membrane. The membranes were blocked in blocking buffer (5% skim milk in Tris-buffered saline containing 0.1% Tween 20 (TBST)) and incubated with primary antibodies overnight at 4 °C, followed by incubation with appropriate secondary antibodies for 4 h at room temperature. The membranes were washed three times with TBST for 40 min. The bands were detected using Super Signal West Pico chemiluminescence substrate (Pierce, Rockford, IL, USA) according to the manufacturer’s instructions. The immunoreactive protein bands were detected using an Odyssey scanning system (LI-COR, Lincoln, NE, USA). […]

[3] = system: advanced glycation end-product (AGE) formation; assay: Inhibition of fluorescent AGE formation in HSA-glucose-fructose system; set-up: species or system human; conditions: for percentage of inhibition of AGE formation: week 4 of incubation
Protocol: The formation of glycated HSA-fructose-glucose was examined according to a previously published method. To prepare the AGE reaction solution, 20 mg/mL HSA in 50 mM sodium phosphate buffer (pH 7.4) was added to 0.2M fructose, 0.2 M glucose, and 0.02% sodium azide to prevent bacterial growth. The reaction mixture (3.8 mL) was then mixed with 200 μL of various concentrations of 6-FU and aminoguanidine hydrochloride dissolved in 10% DMSO. The control was prepared using HSA and sugars, and a blank was prepared using only HSA in the same buffer. The reaction mixtures were incubated at 37 °C for 4 weeks. Aliquots of the reaction mixtures were then assayed to determine the presence of AGEs.
The ability of the isolates to inhibit AGE formation was evaluated according to a previously published method with slight modifications. To prepare the AGE reaction solution, 20 mg/mL HSA in 50mM sodium phosphate buffer (pH 7.4) was added to 0.2M fructose and 0.2 M glucose, along with 0.02% sodium azide to prevent bacterial growth. The reaction mixture (950 μL) was then combined with various concentrations of 6-FU (50 μL, test concentration ranging from 0.8 to 100 μM) dissolved in 10% DMSO. After incubating the mixture at 37 °C, AGE formation in the aliquots was determined at weekly intervals using a spectrofluorometric detector (FLx800 microplate fluorescence reader, Bio-Tek Instrument, Inc., Winooski, VT, USA) with excitation and emission wavelengths of 350 nm and 450 nm, respectively. The nucleophilic hydrazine compound aminoguanidine was used as a reference in the AGE assay.

[4] = molecular target: T1, PTP1B (human recombinant) (Homo sapiens, UniProt P18031); assay: PTP1B inhibition assay using pNPP; type: biochemical
T1 construct: purchased Biomol International LP (Plymouth Meeting, PA, USA)
T1 sequence (P18031 1-435): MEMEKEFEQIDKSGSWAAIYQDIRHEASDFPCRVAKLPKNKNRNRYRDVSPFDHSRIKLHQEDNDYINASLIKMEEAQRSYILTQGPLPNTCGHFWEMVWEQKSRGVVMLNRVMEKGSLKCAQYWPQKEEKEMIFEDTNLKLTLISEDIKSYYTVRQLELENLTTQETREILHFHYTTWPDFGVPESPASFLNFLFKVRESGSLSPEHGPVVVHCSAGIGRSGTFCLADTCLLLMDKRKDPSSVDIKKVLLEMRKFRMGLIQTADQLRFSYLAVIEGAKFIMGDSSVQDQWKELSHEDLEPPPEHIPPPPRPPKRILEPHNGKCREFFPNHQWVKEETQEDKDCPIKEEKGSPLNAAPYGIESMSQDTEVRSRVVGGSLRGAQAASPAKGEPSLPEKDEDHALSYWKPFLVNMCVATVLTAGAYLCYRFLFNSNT
Protocol: The PTP1B inhibitory activity was evaluated using pNPP according to the modified procedure reported by Ali et al..
(§1) To determine the inhibition mechanism, enzymatic inhibition at various concentrations of 6-FU was evaluated by monitoring the effects of different concentrations of substrates via Dixon plots. Dixon plots for PTP1B inhibition by 6-FU were obtained in the presence of 0.5, 1, and 2 mM pNPP. The test concentrations of 6-FU in the PTP1B kinetic analysis were 0, 1.25, 2.5, 5.0, and 10 µM. Dixon plots for α-glucosidase inhibition by 6-FU were performed in the presence of 0.625, 1.25, and 2.5 mM pNPG. The test concentrations of 6-FU used in the α-glucosidase kinetic analysis were 0, 31.25, 62.5, 125, and 250 µM. Both enzymatic procedures followed the PTP1B and α-glucosidase assay methods. Dixon plots for HRAR inhibition by 6-FU were performed in the presence of 5, 10, and 20 mM of DL-glyceraldehyde as the substrate. The test concentrations of 6-FU used in the HRAR kinetic analysis were 0, 0.08, 0.4, 2, and 10 µM. The Dixon plot is a graphical method [1/enzyme velocity (1/V) against inhibitor concentration (I)] for determining the type of enzyme inhibition and was used to determine the dissociation or inhibition constant (Ki) for the enzyme–inhibitor complex. Thus, the type of enzyme inhibition was determined by interpreting the Lineweaver–Burk plots, and the inhibition constants (Ki) were determined by interpreting the Dixon plots.

C2C12 cells = assay: C2C12 cell viability (MTT assay); type: cell-based; conditions: 24 h, up to 40 μM (tested up to 80 μM)
Protocol: The C2C12 cell line (skeletal muscle cells) was purchased from the American Type Culture Collection (Manassas, VA, USA). The C2C12 cells were cultured at 37 °C in DMEM supplemented with 10% FBS and P/S (Hyclone, Mordialloc, VIC, Australia) in a humidified atmosphere with 5% CO2. The tetrazolium dye colorimetric test (MTT) was used to determine cell viability. First, the C2C12 cells were cultured in 96-well plates (2 × 10^5 cells/well) for 24 h. After they reached 90% confluence, they were treated with various concentrations of 6-FU. After 24 h of incubation, the MTT reagent was added to each well, and the plate was incubated for 2 h at 37 °C. The media were removed, and the wells were washed twice with PBS (pH 7.4). To measure the proportion of surviving cells, the medium was replaced with 100 μL DMSO (100%). The resulting absorbance values were measured at 570 nm with a microplate reader (Molecular Devices, Sunnyvale, CA, USA).

[5] = molecular target: T2, human recombinant aldose reductase (HRAR) (Homo sapiens, UniProt P15121); assay: HRAR inhibition assay (NADPH absorption decrease, DL-glyceraldehyde substrate); type: biochemical
T2 construct: purchased Wako Chemicals (Osaka, Japan)
Protocol: HRAR inhibition was examined as described by Ali et al.. Briefly, AR activity was determined by measuring the decrease in NADPH absorption at 340 nm over a period of 1 min on an Ultrospec®2100pro UV/Visible spectrophotometer (Cytiva, Buckinghamshire, UK). SWIFT II Applications software (Amersham Biosciences, NJ, USA) was used for all data analyses. […] The inhibition percentage (%) was calculated as described in the RLAR assay, except that the DA sample per min value represented the reduction in absorbance for 1 min with the test samples and substrate. The ability of each sample to inhibit HRAR was expressed as an IC50 value (µM), which was calculated from the log-dose inhibition curve.
as §1

Yeast α-glucosidase = Yeast α-glucosidase (Saccharomyces cerevisiae, UniProt P53341); assay: α-glucosidase inhibitory assay using pNPG; type: biochemical; conditions: Dixon and Lineweaver-Burk plots
Chain of Yeast α-glucosidase (P53341 whole entry): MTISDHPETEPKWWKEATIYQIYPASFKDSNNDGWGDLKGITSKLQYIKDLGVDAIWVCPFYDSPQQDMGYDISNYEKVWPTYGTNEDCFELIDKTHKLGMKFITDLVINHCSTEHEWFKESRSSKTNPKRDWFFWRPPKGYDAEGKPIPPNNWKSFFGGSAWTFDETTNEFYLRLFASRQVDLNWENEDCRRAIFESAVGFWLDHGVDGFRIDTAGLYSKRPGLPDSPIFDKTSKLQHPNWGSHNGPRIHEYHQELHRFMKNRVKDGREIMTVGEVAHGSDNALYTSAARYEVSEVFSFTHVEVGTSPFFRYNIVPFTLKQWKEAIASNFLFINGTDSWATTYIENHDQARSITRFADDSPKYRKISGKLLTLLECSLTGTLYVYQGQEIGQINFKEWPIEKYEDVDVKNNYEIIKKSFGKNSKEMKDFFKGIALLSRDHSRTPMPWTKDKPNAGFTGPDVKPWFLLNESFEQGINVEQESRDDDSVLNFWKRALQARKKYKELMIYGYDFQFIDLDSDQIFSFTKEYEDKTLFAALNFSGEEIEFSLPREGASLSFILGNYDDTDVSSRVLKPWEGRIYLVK
Protocol: as §1

[6] = Dixon and Lineweaver-Burk plots

**Q.** How did the “insulin-stimulated 2-NBDG uptake” value ([1]; 10, 20, and 40 μM, compared with the control) turn out when O=Cc1cc2ccc(=O)oc2cc1O [6-FU, 6-formyl umbelliferone] was run?
**A.** significantly enhanced

**Q.** What about the PTP1B expression level [2] of the same compound?
**A.** decreased

**Q.** What about the IC50 ([3]; AGE formation, mean ± SEM of triplicates) of the same compound?
**A.** 2150 ± 130 nM

**Q.** And the “percentage of inhibition of AGE formation” value ([3]; 0.8 μM)?
**A.** 24.04%

**Q.** What about the “percentage of inhibition of AGE formation” value ([3]; 4.0 μM) of the same compound?
**A.** 55.73%

**Q.** And the “percentage of inhibition of AGE formation” value ([3]; 20 μM)?
**A.** 64.18%

**Q.** What about the “percentage of inhibition of AGE formation” value ([3]; 100 μM) of the same compound?
**A.** 82.60%

**Q.** What about the IC50 [4] of the same compound?
**A.** 1130 ± 120 nM

**Q.** And the Ki [4]?
**A.** 1720 nM

**Q.** And the “Inhibition type PTP1B” value [4, 6]?
**A.** Competitive

**Q.** And the “cytotoxicity (cell viability, MTT)” value (C2C12 cells)?
**A.** not cytotoxic

**Q.** And the IC50 [5]?
**A.** 5110 ± 210 nM

**Q.** And the Ki [5]?
**A.** 4870 nM

**Q.** And the “Inhibition type HRAR” value [5, 6]?
**A.** Mixed

**Q.** What about the “Inhibition type α-Glucosidase” value (Yeast α-glucosidase) of the same compound?
**A.** Mixed

**Q.** For N=C(N)NN [Aminoguanidine, aminoguanidine, reference compound], which “percentage of inhibition of AGE formation” value ([3]; 100 μM) is on record?
**A.** 57.23%

**Q.** How did the IC50 [5] turn out when O=C(O)Cn1c(=O)n(Cc2ccc(Br)cc2F)c(=O)c2ccc(Cl)cc21 [Zenarestat, zenarestat, reference compound] was run?
**A.** 630 ± 10 nM

**Q.** CN(CCOc1ccc(CC2SC(=O)NC2=O)cc1)c1ccccn1 (stereo not drawn) [rosiglitazone, reference compound] was tested. Which insulin-stimulated glucose uptake ([1]; 5 μM) did it give?
**A.** significantly increased
